What was measured:
[1] = background statement; cited from earlier work
[2] = test system: pain following TKA surgery; experiment: Phase 1/2 randomized, double-blind, placebo-controlled study in patients undergoing total knee arthroplasty (TKA); type: in vivo, human
Procedure: • This is a two-part, Phase 1/2, randomized, double-blind, placebo-controlled study. In Part A, 2 or more exploratory sequential dose-escalation cohorts will be evaluated, each with administration of a single dose of Compound 1 or placebo infiltrated/instilled during surgery in patients undergoing TKA (FIG. 5).
• 1. Cohort #1: total N=8 patients randomized 3:1 Compound 1 36 mg in 120 mL (0.3 mg/mL) or placebo 120 mL • 2. Cohort #2: total N=8 patients randomized 3:1 Compound 1 60 mg in 120 mL (0.5 mg/mL) or placebo 120 mL • 3. Cohort #2: total N=8 patients randomized 3:1 Compound 1 90 mg in 120 mL (0.75 mg/mL) or placebo 120 mL
• 1. Cohort #1: total N=˜97 patients randomized 2:1 Compound 1 36 mg in 120 mL (0.3 mg/mL) or placebo 120 mL • 2. Cohort #2: total N=˜97 patients randomized 2:1 Compound 1 60 mg in 120 mL (0.5 mg/mL) or placebo 120 mL
Subjects underwent unilateral total knee arthroplasty (replacement) (TKA). […]
Following surgery, patients were transferred to the PACU where they underwent an assessment of safety and efficacy over the next 96 (±4) hours. T0 is the time of admission into the PACU (as recorded in notes by the PACU nurse). The schedule of assessments was as follows: • Patients with inadequately controlled pain may request rescue at any time during T0 to D5; however, patients will be encouraged to receive rescue medication only with an NRS ≥4. • Pain intensity (assessed with NRS). • During the inpatient stay, NRS at rest beginning with the PACU admission was able to be assessed once the patient is awake. […] Scheduled NRS scores must be recorded regardless of timing of pre-rescue medication NRS scores and administration of rescue medication. The actual time of all NRS scores must be recorded, i.e., not the nominal time. • During the inpatient stay, evoked NRS twice daily after physical therapy (most preferred) or ambulation for approximately 10 yards (preferred) or transfers to/from bed or wheelchair. […]

[3] = Aqueous solubility (descriptive statement); type: physicochemical
[4] = test system: postoperative pain after a bunionectomy; experiment: Phase 2 randomized, double-blind, placebo-controlled study in subjects undergoing bunionectomy; type: in vivo, human; settings: for reduction in opioid consumption: FIG. 3
Procedure: Compound 1 was investigated as a potential therapy for treatment of pain following bunionectomy. Compound 1 was administered (injected and instilled) directly into the postoperative wound during the surgery. This study is a follow-on placebo-controlled efficacy and safety study which includes assessments of wound healing and a PK study in enrolled subjects.
• This trial was designed to determine the efficacy of study treatment (Compound 1 vs. placebo) infiltrated/instilled during surgery in treating postoperative pain after a bunionectomy in the setting of multimodal analgesia in addition to a Mayo block with bupivacaine in the first 24 h (FIG. 1).
Protocol: This Phase 2, multi-center, randomized, double-blind, placebo-controlled, parallel design study evaluated a single dose of one of three Compound 1 dose groups vs. placebo injected during an elective BUNX with a multimodal analgesia regimen including an NSAID and regional Mayo block with bupivacaine. The study was conducted in two parts: • Inpatient period which continued to 96h after completion of study treatment injection (TO) or T96h. • Outpatient period which began on discharge from the inpatient unit through various follow visits to D29±2 (W4) after surgery, or if necessary for ongoing safety assessments, to D36±2 (W5).
Subjects underwent unilateral transpositional first metatarsal osteotomy for the correction of hallux valgus deformity (bunionectomy or BUNX). The surgery was performed under light to moderate sedation anesthesia (what constitutes this level of sedation and the additional anesthetic medications used per discretion of the anesthesiologist). In accordance with standard of care, light to moderate sedation was supplemented with a Mayo block to produce surgical anesthesia and postoperative analgesia. After administering light to moderate sedation, but prior to surgery, performed a Mayo block by infiltrating 0.5% bupivacaine hydrochloride (up to 30 mL total volume, 150 mg) at least 3 cm proximal to the “surgical site”. The Mayo block was performed at 15-30 minutes prior to study treatment dosing. “Surgical site” is defined as the area extending approximately 2-3 cm in all directions (lateral/medial/proximal/distal) from the incision site and surrounding tissues which may be affected by the infiltration of study treatment.
After the surgery, subjects were monitored for 96 hours in an inpatient unit. Safety and efficacy evaluations were performed. […] Subjects were required to meet certain pre-specified criteria prior to discharge.
T0 is the time that the study treatment injection/instillation is completed.
Following surgery, subjects were transferred to the appropriate recovery unit where they underwent various assessments over the next 96 hours (end of surgery [EOS] to T96h). In addition to the Mayo block noted above, a multimodal analgesia regimen included the following during the immediate postoperative period: • Ketorolac 30 mg IV (a non-steroidal anti-inflammatory drug (NSAID) to be administered intraoperatively before the end of surgery. Per investigator discretion, adjust the dose as necessary for subject age and medical condition. • Acetaminophen 1000 mg IV to be administered intraoperatively before the end of surgery.
After the non-opioid analgesics noted above has been administered, no additional NSAIDs or acetaminophen were administered during the inpatient phase of the study (through T96h). Additionally, the following rescue medication was able to be administered for any moderate to severe breakthrough pain during the inpatient period: • PO oxycodone 5 mg prn q2h in the first 12 hours after surgery for moderate or severe pain (≥4) as reported by subjects using the 0 to 10 numerical rating scale of current pain intensity (NRS). • PO oxycodone 5 mg prn q4h from 12 to 96 hours after surgery for moderate or severe pain (NRS≥4).
After surgery, subjects were monitored for 96 hours (through T96h) at the trial site as an inpatient.

[5] = test system: pain in subjects undergoing surgery to repair a ventral hernia; experiment: Randomized, double-blind, placebo-controlled study in subjects undergoing ventral hernia repair (laparotomy); type: in vivo, human
Procedure: Using the general delivery technique identified in Part A, this dose, concentration and volume will be assessed compared to a placebo in a pilot, double-blind, randomized, parallel-group design (see Figure). […] Study treatment was administered intraoperatively as a single administration via infiltration/instillation into the “surgical site” prior to wound closure. In general, the intent was to deliver local anesthetic into the surgical site “on the way in” (upon adequate exposure of and prior to incision/dissection of target tissues). […] The “surgical site” is defined as the area extending approximately at least 2-3 cm in all directions (lateral/medial/proximal/distal/deep) from the margins of substantially all tissue traumatized by the surgical procedure, i.e., all tissue dissected, cut, electrocauterized (bovied), sutured or tacked, including both deep and superficial areas. The surgical site include sthe full area of surgical mesh placement. […] The surgery was performed under general anesthesia with the following guidelines: • Inhaled anesthetic or propofol infusion with or without nitrous oxide (N20). • Adequate optional premedication typically with midazolam (up to 5 mg), fentanyl (up to 100 mcg), more can be given if indicated • Supplemental anesthesia and sedation will be per institutional guidelines Intra-operative titration of intravenous (IV) fentanyl, including during emergence, will be per institutional guidelines. In addition, patients received bupivacaine hydrochloride (BupiHCl) 175 mg delivered as follows: • Prior to start of surgery under ultrasound guidance: • BupiHCl 0.25%, 30 mL (75 mg) diluted with 10 mL of normal saline to a volume of 40 mL delivered as a rectus block with 20 mL on each side. • Immediately before/after surgical incision: • BupiHCl 0.25%, 40 mL (100 mg), may be diluted in up to 110 mL of normal saline to a total volume of not more than 150 mL: Infiltration of abdominal wall, anterior rectus abdominis sheath, posterior rectus abdominis sheath, other fascia, peritoneum (including circumferential areas of intended mesh placement) Standard supplemental anesthetic and perioperative care was provided per institutional guidelines. This typically included (but not be limited to) steps to ensure preservation of intraoperative normothermia (including the use of preoperative and intraoperative forced-air warming) and deep venous thrombosis prophylaxis. Patients received general anesthesia and bilateral rectus blocks. […]

[6] = bunionectomy, 4.2 mg (0.3 mg/mL)

SMILES | solubility in aqueous media or local anesthetic solutions [1] | reductions in pain ([2]; 36 mg (0.3 mg/mL), FIG. 7) | reduction in opioid consumption ([2]; 36 mg (0.3 mg/mL), FIG. 8) | analgesic activity ([2]; 60 mg (0.5 mg/mL), compared with 36 mg) | water solubility [3] | pain reduction ([4]; bunionectomy, 0.15 mg/mL (2.1 mg), FIG. 2) | reduction in opioid consumption ([4]; bunionectomy, 2.1 mg (0.15 mg/mL)) | reduction in pain [4, 6] | reduction in opioid consumption [4, 6] | persistence of analgesic effect ([4]; bunionectomy, 4.2 mg, FIG. 4) | dose of maximum analgesic effect ([4]; bunionectomy, concentration of 0.3 mg/mL) | reductions of pain and opioid consumption ([4]; single administration during surgery, bunionectomy patients) | reductions in pain ([5]; 36 mg (0.3 mg/mL)) | reduction in pain at rest compared to placebo ([5]; 36 mg (0.3 mg/mL), FIG. 9) | reduction in pain with coughing compared to placebo ([5]; 36 mg (0.3 mg/mL), FIG. 9) | reduction in opioid consumption compared to placebo ([5]; FIG. 9)
COc1cc(CNC(=O)CCCC/C=C/C(C)C)ccc1O [Capsaicin] | virtually insoluble | – | – | – | – | – | – | – | – | – | – | – | – | – | – | –
CNCC1CCCCN1C(=O)Oc1ccc(CNC(=O)CCCC/C=C/C(C)C)cc1OC (stereo not shown) [Compound 1, (E)-2-methoxy-4-((8-methylnon-6-enamido)methyl)phenyl 2-((methylamino)methyl)piperidine-1-carboxylate] | – | long lasting reductions in pain | significant reduction in opioid consumption | lower analgesic activity which was of a shorter duration | highly water-soluble | trend in pain reduction | statistically significant reduction in opioid consumption | statistically significant reduction in pain | statistically significant reduction in opioid consumption | ≥ 15 days | 4.2 mg | long lasting reductions of pain and opioid consumption | long lasting reductions in pain | 21% | 46% | 26%

From patent US20240058316A1, “PRODRUG OF A PHENOLIC TRPV1 AGONIST FOR THE TREATMENT OF PAIN” (Concentric Analgesics, Inc., priority 2020, published 2024)
